The values that follow come from EPA's ToxValDB 9.5 (doi:10.2903/j.efsa.2015.3958).

Some results are limits rather than exact numbers.

One series concerns Apis mellifera. The conditions noted are these: acute; oral; unspecified; mortality.
The test system of a further series is Daphnia magna. Particulars: chronic/long-term; duration: 21 days; reproduction.
In a further series the test system is Folsomia candida. The conditions noted are these: chronic/long-term; duration: 28 days.
The subject of the next series is Hypoaspis aculeifer. The conditions noted are these: acute; duration: 14 days.
The subject of a further series is Pimephales promelas. Particulars: chronic/long-term; duration: 32 days; growth.

In the case of `COc1nc(C)nc(NC(=O)NS(=O)(=O)c2ccccc2OCCCl)n1` [Triasulfuron], the LD50 was over 100 µg/piece with Apis mellifera; over 2150 mg/kg in the series with Colinus virginianus (acute, oral, mortality); over 5000 mg/kg in the series on Rattus norvegicus (acute, mortality). The LC50 was over 5000 mg/kg with Colinus virginianus (acute, oral, diet, mortality) and over 1000 mg/kg in the series with Tagia sp. (acute, duration: 14 days, mortality). Moreover, the NOEL in the series with Colinus virginianus (reproduction developmental) was determined as 94 mg/kg-day. Also, the NOEC in the series on Daphnia magna is 10 mg/L; with Folsomia candida, 100 mg/kg; in the series on Hypoaspis aculeifer, 100 mg/kg; with Pimephales promelas it was 36.6 mg/L; in the series on Tagia sp. (chronic/long-term, duration: 8 weeks), 50.8 mg/kg. Moreover, the NOAEL in the series with Rattus norvegicus (chronic) was determined as 50 mg/kg-day.

The NOAEL is the highest tested level that showed no adverse finding.
